How the values were obtained:
Assay type in all cases: organism-based
Phaseolus vulgaris [1] = test: Phytotoxicity in Phaseolus vulgaris (white navy bean) assessed as decrease in crop yield relative to untreated control; settings: in vivo
Phaseolus vulgaris [2] = test: Phytotoxicity in Phaseolus vulgaris (cranberry bean) assessed as visual injury at 1080 g ai/ha applied as spray during post emergence after 7 days relative to untreated control; settings: in vivo, other, 168 h
Vigna angularis [3] = test: Phytotoxicity in Vigna angularis (adzuki bean) assessed as seed moisture content at 2160 g ai/ha after 42 days applied as spray (reference value: 13.9%); settings: in vivo, other, 1008 h, at 2160 g/ha
Vigna angularis [4] = test: Phytotoxicity in Vigna angularis (adzuki bean) assessed as seed moisture content at 1080 g ai/ha after 42 days applied as spray (reference value: 13.9%); settings: in vivo, other, 1008 h, at 1080 g/ha
Phaseolus vulgaris [5] = test: Phytotoxicity in Phaseolus vulgaris (dry bean) assessed as visual injury at 1080 g ai/ha applied as spray during post emergence relative to untreated control; settings: in vivo, other
Phaseolus vulgaris [6] = test: Phytotoxicity in Phaseolus vulgaris (black bean) assessed as visual injury at 1080 g ai/ha applied as spray during post emergence after 7 days relative to untreated control; settings: in vivo, other, 168 h
Vigna angularis [7] = test: Phytotoxicity in Vigna angularis (adzuki bean) assessed as decrease in crop yield at 2160 g ai/ha measured during post emergence applied as spray relative to untreated control; settings: in vivo, other
Vigna angularis [8] = test: Phytotoxicity in Vigna angularis (adzuki bean) assessed as decrease in plant height at 2160 g ai/ha after 28 days applied as spray relative to untreated control; design: scale not given: the % may be the effect or the level left; settings: in vivo, other, 672 h
Vigna angularis [9] = test: Phytotoxicity in Vigna angularis (adzuki bean) assessed as decrease in plant height at 1080 g ai/ha after 28 days applied as spray relative to untreated control; design: scale not given: the % may be the effect or the level left; settings: in vivo, other, 672 h
Vigna angularis [10] = test: Phytotoxicity in Vigna angularis (adzuki bean) assessed as visual injury at 2160 g ai/ha after 28 days applied as spray relative to untreated control; settings: in vivo, other, 672 h
Vigna angularis [11] = test: Phytotoxicity in Vigna angularis (adzuki bean) assessed as visual injury at 2160 g ai/ha after 14 days applied as spray relative to untreated control; settings: in vivo, other, 336 h
Vigna angularis [12] = test: Phytotoxicity in Vigna angularis (adzuki bean) assessed as visual injury at 2160 g ai/ha after 7 days applied as spray relative to untreated control; settings: in vivo, other, 168 h
Vigna angularis [13] = test: Phytotoxicity in Vigna angularis (adzuki bean) assessed as visual injury at 1080 g ai/ha after 28 days applied as spray relative to untreated control; settings: in vivo, other, 672 h
Vigna angularis [14] = test: Phytotoxicity in Vigna angularis (adzuki bean) assessed as visual injury at 1080 g ai/ha after 14 days applied as spray relative to untreated control; settings: in vivo, other, 336 h
Vigna angularis [15] = test: Phytotoxicity in Vigna angularis (adzuki bean) assessed as visual injury at 1080 g ai/ha after 7 days applied as spray relative to untreated control; settings: in vivo, other, 168 h
Vigna angularis [16] = test: Phytotoxicity in Vigna angularis (adzuki bean) assessed as decrease in crop yield at 1080 g ai/ha measured during post emergence applied as spray relative to untreated control; settings: in vivo, other
Vigna angularis [17] = test: Phytotoxicity in Vigna angularis (adzuki bean) assessed as decrease in shoot dry weight at 2160 g ai/ha after 42 days applied as spray relative to untreated control; design: scale not given: the % may be the effect or the level left; settings: in vivo, other, 1008 h
Vigna angularis [18] = test: Phytotoxicity in Vigna angularis (adzuki bean) assessed as decrease in shoot dry weight at 1080 g ai/ha after 42 days applied as spray relative to untreated control; design: scale not given: the % may be the effect or the level left; settings: in vivo, other, 1008 h
Vigna angularis [19] = test: Phytotoxicity in Vigna angularis (adzuki bean) assessed as crop yield at 480 g ai/ha measured during post emergence applied as spray (reference value: 2.05 t/ha); settings: in vivo, other
Vigna angularis [20] = test: Phytotoxicity in Vigna angularis (adzuki bean) assessed as seed moisture content at 480 g ai/ha after 42 days applied as spray (reference value: 13.9%); settings: in vivo, other, 1008 h, at 480 g/ha
Vigna angularis [21] = test: Phytotoxicity in Vigna angularis (adzuki bean) assessed as seed moisture content at 240 g ai/ha after 42 days applied as spray (reference value: 13.9%); settings: in vivo, other, 1008 h, at 240 g/ha
Vigna angularis [22] = test: Phytotoxicity in Vigna angularis (adzuki bean) assessed as plant height at 480 g ai/ha after 28 days applied as spray (RVB = 34 cm); settings: in vivo, other, 672 h
Vigna angularis [23] = test: Phytotoxicity in Vigna angularis (adzuki bean) assessed as plant height at 240 g ai/ha after 28 days applied as spray (RVB = 34 cm); settings: in vivo, other, 672 h
Vigna angularis [24] = test: Phytotoxicity in Vigna angularis (adzuki bean) assessed as visual injury at 480 g ai/ha after 28 days applied as spray relative to untreated control; settings: in vivo, other, 672 h
Vigna angularis [25] = test: Phytotoxicity in Vigna angularis (adzuki bean) assessed as visual injury at 480 g ai/ha after 14 days applied as spray relative to untreated control; settings: in vivo, other, 336 h
Vigna angularis [26] = test: Phytotoxicity in Vigna angularis (adzuki bean) assessed as visual injury at 480 g ai/ha after 7 days applied as spray relative to untreated control; settings: in vivo, other, 168 h
Vigna angularis [27] = test: Phytotoxicity in Vigna angularis (adzuki bean) assessed as visual injury at 240 g ai/ha after 28 days applied as spray relative to untreated control; settings: in vivo, other, 672 h
Vigna angularis [28] = test: Phytotoxicity in Vigna angularis (adzuki bean) assessed as visual injury at 240 g ai/ha after 14 days applied as spray relative to untreated control; settings: in vivo, other, 336 h
Vigna angularis [29] = test: Phytotoxicity in Vigna angularis (adzuki bean) assessed as visual injury at 240 g ai/ha after 7 days applied as spray relative to untreated control; settings: in vivo, other, 168 h
Vigna angularis [30] = test: Phytotoxicity in Vigna angularis (adzuki bean) assessed as crop yield at 240 g ai/ha measured during post-emergence applied as spray (reference value: 2.05 t/ha); settings: in vivo, other
Vigna angularis [31] = test: Phytotoxicity in Vigna angularis (adzuki bean) assessed as decrease in shoot dry weight at 480 g ai/ha after 42 days applied as spray relative to untreated control; design: scale not given: the % may be the effect or the level left; settings: in vivo, other, 1008 h
Vigna angularis [32] = test: Phytotoxicity in Vigna angularis (adzuki bean) assessed as shoot dry weight at 240 g ai/ha measured per 1 m row after 42 days applied as spray (reference value: 153 g); settings: in vivo, other, 1008 h

## CC(C)N1C(=O)c2ccccc2NS1(=O)=O [BENTAZON]
Phaseolus vulgaris [1]
  Crop_yield: <= 21%
Phaseolus vulgaris [2]
  Activity: < 2%
Vigna angularis [3]
  Activity: 15.3%
Vigna angularis [4]
  Activity: 15%
Phaseolus vulgaris [5]
  Activity: 3%
Phaseolus vulgaris [6]
  Activity: < 3%
Vigna angularis [7]
  Crop_yield: 56%
Vigna angularis [8]
  Activity: 43%
Vigna angularis [9]
  Activity: 37%
Vigna angularis [10]
  Activity: 38.1%
Vigna angularis [11]
  Activity: 43.5%
Vigna angularis [12]
  Activity: 36.4%
Vigna angularis [13]
  Activity: 29.8%
Vigna angularis [14]
  Activity: 33.2%
Vigna angularis [15]
  Activity: 29.5%
Vigna angularis [16]
  Crop_yield: 48%
Vigna angularis [17]
  Activity: 65%
Vigna angularis [18]
  Activity: 60%

## CS(=O)(=O)NC(=O)c1cc(Oc2ccc(C(F)(F)F)cc2Cl)ccc1[N+](=O)[O-] [FOMESAFEN]
Vigna angularis [19]
  Crop_yield: 1.81 tons/ha
Vigna angularis [20]
  Activity: 14.4%
Vigna angularis [21]
  Activity: 14.2%
Vigna angularis [22]
  Activity: 31.3 cm
Vigna angularis [23]
  Activity: 32.4 cm
Vigna angularis [24]
  Activity: 2.6%
Vigna angularis [25]
  Activity: 7.2%
Vigna angularis [26]
  Activity: 9.8%
Vigna angularis [27]
  Activity: 1.7%
Vigna angularis [28]
  Activity: 4.6%
Vigna angularis [29]
  Activity: 6.8%
Vigna angularis [30]
  Crop_yield: 1.88 tons/ha
Vigna angularis [31]
  Activity: 16%
Vigna angularis [32]
  Activity: 140 g

Source: ChEMBL document CHEMBL3044665, “Adzuki bean (Vigna angularis) responses to post-emergence herbicides” (Crop Prot, 2006)
